According to patent US20160075667A1, “COMPOSITIONS AND METHODS FOR CHEMICAL EXCHANGE SATURATION TRANSFER (CEST) MAGNETIC RESONANCE IMAGING (MRI)” (The Johns Hopkins University, priority 2013, published 2016):

Test: Phantom calibration: CEST MTRasym spectra of I45DC-(Glu)2 in PBS
Type: physicochemical
Conditions: pH 5.4 to 7.5
Description: I45DC-(Glu)2 was dissolved in PBS with conc. of 50 mM, 25 mM, 12 mM and 6.25 mM and pH from 5.4 to 7.5.
Images were taken on Bruker 11.7T scanners, using a RARE sequence with CW saturation pulse of B1=5.9 uT, Tsat=3 s. For phantoms, saturation frequency incremented every 0.3 ppm from −15 to 15 ppm with TR/TE=6000 ms/17 ms, matrix size=64×48. For in vivo, an axial slice across both kidney carlyx was chosen with thickness of 1.5 mm CEST images with saturation frequencies of [±7.8 ppm, ±7.5 ppm, ±7.2 ppm] and [±4.8 ppm, ±4.5 ppm, ±4.2 ppm] for pH reference were acquired repeatedly every 10 min pre- and post-injection. Image parameters are similar as for phantom except for TR/TE=5 s/15 ms, and CEST contrast was quantified by
MTRasym=(S−Δω−S+Δω)/S−Δω.
CEST MTRasym spectra of I45DC-(Glu)2 (FIG. 5A) show 2 broad peaks centered at 7.5 ppm and 2.4 ppm, with the 7.5 ppm peak increasing as pH increases, while the 2.5 ppm-5 ppm part remains relatively constant. […] The linearity of the ratio using saturation B1=5.9 uT is better than B1=3.6 uT partially due to a relative fast exchange rate of the heterocyclic NH (kex=˜4000).

## O=C[C@H](CCC(=O)O)NNC(=O)c1nc[nH]c1C(=O)NN[C@H](C=O)CCC(=O)O [I45DC-(Glu)2, 4,5-bis[(Glu)carbonyl]-1H-imidazole]
6.25-50 mM
  ratio of the 7.5 ppm contrast to contrast at 4.8 ppm: dependent on pH
  exchange rate of the heterocyclic NH (kex): ~4000
